In publication PMC7339578, “Multiple circulating alkaloids and saponins from intravenous Kang-Ai injection inhibit human cytochrome P450 and UDP-glucuronosyltransferase isozymes: potential drug–drug interactions” (Chinese Medicine, 2020):
Where two headings read alike, the source gives them in different places.

Key:
Format in all cases: in vitro ADME
[1] = Stability tests of analytes in rat plasma QC samples
Experimental: […] The dilution integrity was investigated by analyzing six replicate samples with each analyte, and each analyte were diluted 10-fold with blank rat matrix. Furthermore, the diluted samples were analyzed using freshly prepared calibration curve to calculate RE and RSD, which should be no more than ± 15% as criterion.

CYP2C19 = CYP2C19 (Homo sapiens, UniProt P33261); assay: Inhibition of recombinant CYP2C19 (probe mephenytoin); settings: recombinant isozyme; mean ± SD of triplicate; unit not given (IC50 classes in μM); read-out: IC50 towards CYP2C19
CYP2C19, sequence (P33261 whole entry): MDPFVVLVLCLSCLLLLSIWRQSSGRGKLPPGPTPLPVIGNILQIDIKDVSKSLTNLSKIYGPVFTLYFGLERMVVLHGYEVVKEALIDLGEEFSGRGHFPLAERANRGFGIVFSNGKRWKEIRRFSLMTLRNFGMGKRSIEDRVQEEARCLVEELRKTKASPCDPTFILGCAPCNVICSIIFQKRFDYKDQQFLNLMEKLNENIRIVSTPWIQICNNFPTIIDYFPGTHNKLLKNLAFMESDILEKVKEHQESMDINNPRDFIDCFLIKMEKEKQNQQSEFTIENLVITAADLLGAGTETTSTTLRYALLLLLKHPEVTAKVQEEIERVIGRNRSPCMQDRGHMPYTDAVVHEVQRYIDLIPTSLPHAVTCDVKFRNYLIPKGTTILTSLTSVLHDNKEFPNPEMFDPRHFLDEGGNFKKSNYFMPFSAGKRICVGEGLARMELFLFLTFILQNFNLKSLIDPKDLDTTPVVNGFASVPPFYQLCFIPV
Experimental: (§1) In this study, phenacetin (100 μM), coumarin (100 μM), bupropion (100 μM), paclitaxel (60 μM), tolbutamide (200 μM), mephenytoin (100 μM), chlorzoxazone (200 μM) and nifedipine (40 μM) have been used as the probe substrates for CYP1A2, 2A6, 2B6, 2C8, 2C9, 2C19, 2E1 and 3A4, respectively.

UGT1A1 = target: T1, UGT1A1 (Homo sapiens, UniProt P22309); assay: Inhibition of expressed UGT1A1 (probe β-estradiol); settings: recombinant isozyme; mean ± SD of triplicate; unit not given (IC50 classes in μM); read-out: IC50 towards UGT1A1
T1 sequence (P22309 26-533): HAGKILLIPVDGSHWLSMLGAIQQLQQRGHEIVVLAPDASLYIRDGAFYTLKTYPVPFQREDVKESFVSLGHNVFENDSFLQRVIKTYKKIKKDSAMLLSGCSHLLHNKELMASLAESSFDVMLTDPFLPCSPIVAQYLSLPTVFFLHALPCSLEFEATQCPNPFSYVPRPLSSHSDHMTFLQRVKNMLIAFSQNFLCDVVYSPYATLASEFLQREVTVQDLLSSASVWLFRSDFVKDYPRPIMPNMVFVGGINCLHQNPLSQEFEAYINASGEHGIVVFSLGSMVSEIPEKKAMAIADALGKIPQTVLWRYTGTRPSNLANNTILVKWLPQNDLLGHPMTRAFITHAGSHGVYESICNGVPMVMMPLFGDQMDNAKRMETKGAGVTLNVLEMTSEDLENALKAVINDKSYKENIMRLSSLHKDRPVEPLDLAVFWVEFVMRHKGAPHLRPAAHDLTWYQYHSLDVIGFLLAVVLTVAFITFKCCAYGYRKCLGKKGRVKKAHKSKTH
Experimental: After centrifugation (13,800g, 10 min), the supernatant (8 μL) was obtained for determination by UHPLC system.
Similarly, β-estradiol (60 μM), propofol (40 μM) and 4-MU (350 μM) were typically used as the substrates for UGT1A1, 1A9 and 2B7, respectively. After optimization of incubation conditions (Additional file 1: Fig. S2), the protein concentrations for UGT1A1, 1A9, and 2B7 were 0.125, 0.05, and 0.05 mg/mL, respectively.

CYP2C9 = CYP2C9 (Homo sapiens, UniProt P11712); assay: Inhibition of recombinant CYP2C9 (probe tolbutamide); settings: for IC50: read-out: IC50 towards CYP2C9
CYP2C9, sequence (P11712 whole entry): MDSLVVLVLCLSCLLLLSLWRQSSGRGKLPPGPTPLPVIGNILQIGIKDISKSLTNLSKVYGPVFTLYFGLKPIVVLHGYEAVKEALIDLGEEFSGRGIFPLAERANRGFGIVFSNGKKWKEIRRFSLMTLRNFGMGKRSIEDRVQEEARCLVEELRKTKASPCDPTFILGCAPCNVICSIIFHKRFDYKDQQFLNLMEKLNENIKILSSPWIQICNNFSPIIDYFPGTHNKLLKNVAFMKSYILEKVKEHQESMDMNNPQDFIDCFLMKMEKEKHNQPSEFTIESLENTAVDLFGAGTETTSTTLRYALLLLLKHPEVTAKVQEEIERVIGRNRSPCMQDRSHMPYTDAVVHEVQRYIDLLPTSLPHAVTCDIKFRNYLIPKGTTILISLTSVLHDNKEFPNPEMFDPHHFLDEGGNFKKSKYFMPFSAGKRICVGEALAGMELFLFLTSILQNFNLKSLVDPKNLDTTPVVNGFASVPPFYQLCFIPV
Experimental: as §1

CYP2B6 = target: T2, CYP2B6 (Homo sapiens, UniProt P20813); assay: Inhibition of recombinant CYP2B6 (probe bupropion); settings: recombinant isozyme; mean ± SD of triplicate; unit not given (IC50 classes in μM); read-out: IC50 towards CYP2B6
T2 sequence (P20813 1-491): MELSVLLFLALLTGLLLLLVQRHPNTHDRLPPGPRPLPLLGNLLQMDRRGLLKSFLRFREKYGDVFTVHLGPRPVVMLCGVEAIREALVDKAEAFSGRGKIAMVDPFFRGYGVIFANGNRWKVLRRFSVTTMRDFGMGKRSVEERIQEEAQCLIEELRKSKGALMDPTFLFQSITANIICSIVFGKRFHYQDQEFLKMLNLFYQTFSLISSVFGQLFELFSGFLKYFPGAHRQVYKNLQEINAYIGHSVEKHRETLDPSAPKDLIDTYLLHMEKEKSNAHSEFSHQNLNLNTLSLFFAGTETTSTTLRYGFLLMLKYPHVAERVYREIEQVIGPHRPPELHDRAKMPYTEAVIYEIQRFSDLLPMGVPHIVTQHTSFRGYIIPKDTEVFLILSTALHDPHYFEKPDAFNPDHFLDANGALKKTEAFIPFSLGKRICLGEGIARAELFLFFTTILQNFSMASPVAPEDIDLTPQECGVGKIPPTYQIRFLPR
Experimental: as §1

CYP3A4 = CYP3A4 (Homo sapiens, UniProt P08684); assay: Inhibition of recombinant CYP3A4 (probe nifedipine); settings: recombinant isozyme; mean ± SD of triplicate; unit not given (IC50 classes in μM); read-out: IC50 towards CYP3A4
CYP3A4, sequence (P08684 whole entry): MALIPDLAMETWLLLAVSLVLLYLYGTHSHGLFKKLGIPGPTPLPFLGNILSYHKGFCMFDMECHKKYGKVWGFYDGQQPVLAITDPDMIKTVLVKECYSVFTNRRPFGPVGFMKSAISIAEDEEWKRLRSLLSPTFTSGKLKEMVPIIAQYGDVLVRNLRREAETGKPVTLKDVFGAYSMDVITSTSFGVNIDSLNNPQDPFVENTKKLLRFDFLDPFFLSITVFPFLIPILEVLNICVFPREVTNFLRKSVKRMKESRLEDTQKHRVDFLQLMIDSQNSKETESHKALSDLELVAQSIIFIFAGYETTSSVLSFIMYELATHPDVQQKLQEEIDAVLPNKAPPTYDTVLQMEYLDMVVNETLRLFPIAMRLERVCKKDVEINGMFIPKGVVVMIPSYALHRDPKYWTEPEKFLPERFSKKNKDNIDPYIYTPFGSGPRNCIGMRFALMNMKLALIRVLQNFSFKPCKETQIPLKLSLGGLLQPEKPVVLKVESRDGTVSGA
Experimental: as §1

CYP1A2 = target: T3, CYP1A2 (Homo sapiens, UniProt P05177); assay: Inhibition of recombinant CYP1A2 (probe phenacetin); settings: recombinant isozyme; mean ± SD of triplicate; unit not given (IC50 classes in μM); read-out: IC50 towards CYP1A2
T3 construct: purchased Corning Biosciences 456203
T3 sequence (P05177 1-516): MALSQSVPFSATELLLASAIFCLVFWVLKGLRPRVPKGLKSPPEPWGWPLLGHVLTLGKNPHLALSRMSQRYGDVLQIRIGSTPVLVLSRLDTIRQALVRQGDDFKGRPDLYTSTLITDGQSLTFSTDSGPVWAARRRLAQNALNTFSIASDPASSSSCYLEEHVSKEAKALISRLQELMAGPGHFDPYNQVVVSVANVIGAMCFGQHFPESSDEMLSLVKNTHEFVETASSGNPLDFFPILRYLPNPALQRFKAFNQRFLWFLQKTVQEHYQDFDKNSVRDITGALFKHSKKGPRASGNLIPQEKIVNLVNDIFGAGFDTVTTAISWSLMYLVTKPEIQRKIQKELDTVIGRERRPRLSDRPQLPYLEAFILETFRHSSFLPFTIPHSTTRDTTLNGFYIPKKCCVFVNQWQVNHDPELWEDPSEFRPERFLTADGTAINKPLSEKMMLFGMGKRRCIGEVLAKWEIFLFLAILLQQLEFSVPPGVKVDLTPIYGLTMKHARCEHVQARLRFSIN
Experimental: as §1

[2] = rat plasma, nominal conc. 20 nM
[3] = rat plasma, nominal conc. 100 nM
[4] = rat plasma, nominal conc. 400 nM
[5] = recombinant isozyme, mean ± SD of triplicate, unit not given (IC50 classes in μM)

| SMILES | At -80 °C for 48 h, Mean±SD [1, 2] [nM] | At -80 °C for 48 h, RE [1, 2] [%] | Extracted samples at 8 °C for 18 h, Mean±SD [1, 2] [nM] | Extracted samples at 8 °C for 18 h, RE [1, 2] [%] | Short-term stability at room temperature for 6 h, Mean±SD [1, 2] [nM] | Short-term stability at room temperature for 6 h, RE [1, 2] [%] | Three freeze-thaw cycles (-80 °C ↔ 23 °C), Mean±SD [1, 2] [nM] | Three freeze-thaw cycles (-80 °C ↔ 23 °C), RE [1, 2] [%] | At -80 °C for 48 h, Mean±SD [1, 3] [nM] | At -80 °C for 48 h, RE [1, 3] [%] | Extracted samples at 8 °C for 18 h, Mean±SD [1, 3] [nM] | Extracted samples at 8 °C for 18 h, RE [1, 3] [%] | Short-term stability at room temperature for 6 h, RE [1, 3] [%] | Three freeze-thaw cycles (-80 °C ↔ 23 °C), Mean±SD [1, 3] [nM] | Three freeze-thaw cycles (-80 °C ↔ 23 °C), RE [1, 3] [%] | At -80 °C for 48 h, Mean±SD [1, 4] [nM] | At -80 °C for 48 h, RE [1, 4] [%] | Extracted samples at 8 °C for 18 h, Mean±SD [1, 4] [nM] | Extracted samples at 8 °C for 18 h, RE [1, 4] [%] | Short-term stability at room temperature for 6 h, Mean±SD [1, 4] [nM] | also measured |
| --- | --- | --- | --- | --- | --- | --- | --- | --- | --- | --- | --- | --- | --- | --- | --- | --- | --- | --- | --- | --- | --- |
| CC(C)=CCC[C@](C)(O[C@@H]1O[C@H](CO[C@@H]2O[C@H](CO)[C@@H](O)[C@H](O)[C@H]2O)[C@@H](O)[C@H](O)[C@H]1O)[C@H]1CC[C@]2(C)[C@@H]1[C@H](O)C[C@@H]1[C@@]3(C)CC[C@H](O[C@@H]4O[C@H](CO)[C@@H](O)[C@H](O)[C@H]4O[C@@H]4O[C@H](CO)[C@@H](O)[C@H](O)[C@H]4O)C(C)(C)[C@@H]3CC[C@]12C [Compound D5, Ginsenoside Rb1] | 20.64 ± 1.63 | 8.70 | 17.96 ± 0.32 | -11.74 | 20.30 ± 1.81 | 9.00 | 19.99 ± 1.88 | -10.85 | 94.32 ± 8.04 | -13.46 | 101.02 ± 12.87 | -13.83 | -12.30 | 108.29 ± 6.26 | 12.24 | 428.49 ± 29.97 | 12.25 | 409.55 ± 29.87 | 9.12 | 388.96 ± 18.81 | Short-term stability at room temperature for 6 h, Mean±SD [1, 3]: 91.65 ± 3.42 nM; Short-term stability at room temperature for 6 h, RE [1, 4]: -6.00%; Three freeze-thaw cycles (-80 °C ↔ 23 °C), Mean±SD [1, 4]: 441.95 ± 3.33 nM; Three freeze-thaw cycles (-80 °C ↔ 23 °C), RE [1, 4]: 11.44%; IC50 (CYP2C19): > 100 µM; IC50 (UGT1A1): > 100 µM; inhibition type (smallest AIC and SC) (CYP2C9; CYP2C9): Noncompetitive inhibition; Ki (CYP2C9; CYP2C9, competitive model): 8.2 ± 1 µM; Ki (CYP2C9; CYP2C9, mixed-type model): 18.8 ± 4.3 µM; α (CYP2C9; CYP2C9, mixed-type model): 0.7 ± 0.3; Ki (CYP2C9; CYP2C9, noncompetitive model): 16.1 ± 0.9 µM; Cmax/Ki ([I]/Ki) (CYP2C9; CYP2C9, selected model, rat plasma Cmax): 0.03; IC50 (CYP2C9; [5]): 8.8 ± 3.2 µM; IC50 (CYP2C9; tolbutamide 200 μM): 8.81 µM; IC50 (CYP2B6): > 100 µM; IC50 (CYP3A4): > 100 µM; IC50 (CYP1A2): > 100 µM |
| CC(C)=CCC[C@](C)(O[C@@H]1O[C@H](CO[C@@H]2O[C@@H](CO)[C@H](O)[C@H]2O)[C@@H](O)[C@H](O)[C@H]1O)[C@H]1CC[C@]2(C)[C@@H]1[C@H](O)C[C@@H]1[C@@]3(C)CC[C@H](O[C@@H]4O[C@H](CO)[C@@H](O)[C@H](O)[C@H]4O[C@@H]4O[C@H](CO)[C@@H](O)[C@H](O)[C@H]4O)C(C)(C)[C@@H]3CC[C@]12C [Compound D3, Ginsenoside Rc] | 21.79 ± 0.54 | 11.90 | 21.26 ± 0.64 | 9.82 | 21.00 ± 1.54 | 10.56 | 22.31 ± 0.31 | 12.70 | 92.14 ± 3.15 | -10.73 | 91.90 ± 3.48 | -12.09 | -13.45 | 107.11 ± 6.52 | 11.88 | 421.69 ± 7.21 | 7.06 | 432.26 ± 28.61 | 12.97 | 366.80 ± 3.85 | Short-term stability at room temperature for 6 h, RE [1, 4]: -9.03%; Three freeze-thaw cycles (-80 °C ↔ 23 °C), Mean±SD [1, 4]: 413.15 ± 9.39 nM; Three freeze-thaw cycles (-80 °C ↔ 23 °C), RE [1, 4]: 5.12%; Short-term stability at room temperature for 6 h, Mean±SD ([1]; rat, 6 h, 100 nM): 94.62 ± 9.91 nM; IC50 (CYP2C19): > 100 µM; IC50 (UGT1A1): > 100 µM; IC50 towards CYP2C9 (CYP2C9; [5]): Activation; IC50 (CYP2B6): > 100 µM; IC50 (CYP3A4): > 100 µM; IC50 (CYP1A2): > 100 µM |
